Source: US20040024024A1, “Aromatic sulfone hydroxamates and their use as protease inhibitors” (priority 2001, published 2004)
pKi: −log10 of the molar value.

How the values were obtained:
Assay in all cases: In vitro MMP inhibition, Ki determination (fluorogenic substrate II)
Assay type in all cases: biochemical
Human recombinant MMP-1 = target: T1, Human recombinant MMP-1 (Homo sapiens, UniProt P03956)
T1 construct: made in house; host or cells: MMP-1-transfected HT-1080 cells (spent media)
T1 sequence (P03956 100-469): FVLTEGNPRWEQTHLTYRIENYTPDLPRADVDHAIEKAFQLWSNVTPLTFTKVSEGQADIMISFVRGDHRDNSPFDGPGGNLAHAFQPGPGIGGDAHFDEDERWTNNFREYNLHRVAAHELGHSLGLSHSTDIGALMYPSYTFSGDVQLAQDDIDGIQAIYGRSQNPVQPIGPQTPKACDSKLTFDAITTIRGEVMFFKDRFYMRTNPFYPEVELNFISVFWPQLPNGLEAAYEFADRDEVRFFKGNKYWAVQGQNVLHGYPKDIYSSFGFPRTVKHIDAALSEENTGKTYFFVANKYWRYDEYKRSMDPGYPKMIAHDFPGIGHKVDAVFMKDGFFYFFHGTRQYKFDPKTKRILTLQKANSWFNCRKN
Description: Several hydroxamates and salts thereof were analyzed in in vitro assays to determine their ability to inhibit the MMP cleavage of peptide substrates. Inhibition (Ki) and IC50 constants were calculated from the assayed hydroxamate-MMP interactions.
Human recombinant MMP-1, MMP-2, MMP-9, MMP-13, and MMP-14 were used in this assay. All enzymes were prepared in Assignee's laboratories following usual laboratory procedures. Protocols for the preparation and use of these enzymes are available in the scientific literature. See, e.g., Enzyme Nomenclature (Academic Press, San Diego, Calif., 1992) (and the citations therein). See also, Frije et al., J. Biol. Chem., 26(24), 16766-73 (1994).
The MMP-1 proenzyme was purified from the spent media of MMP-1-transfected HT-1080 cells provided by Dr. Harold Welgus of Washington University (St. Louis, Mo.). The protein was purified on a zinc chelating column.
All MMPs were activated using 4-aminophenylmercuric acetate (“APMA”, Sigma Chemical, St. Louis, Mo.) or trypsin. MMP-9 also was activated using human recombinant MMP-3 (purified in Assignee's laboratory following standard cloning and purification techniques).
Two fluorogenic, methoxycoumarin-containing polypeptide substrates were used in the MMP inhibition assays:
MCA-ArgProLeuGlyLeuDpaAlaArgGluArgNH2 (II)
Here, “Dpa” is 3-(2,4-dinitrophenyl)-L-2,3-diaminopropionyl group, and “MCA” is 7-methoxycoumarin-4-yl acetyl. Substrate (I) was purchased from Baychem (Redwood City, Calif.), and substrate II was prepared Assignee's laboratory. Substrate I was used in the IC50 determination assays, while substrate II was used in the Ki determination assays. In the absence of MMP inhibitory activity, either substrate is cleaved at the Gly-Leu peptide bond. This cleavage separates the highly fluorogenic peptide from the 2,4-dinitrophenyl quencher, thus resulting in increase of fluorescent intensity.
The stock solutions of the assayed hydroxamates (or salts thereof) were prepared in 1% dimethyl sulfoxide (DMSO). These stock solutions were diluted in Buffer A (100 mM Tris-HCl, 100 mM NaCl, 10 mM CaCl2, 0.05% polyoxyethylene 23 lauryl ether, pH 7.5) to obtain solutions with different hydroxamate concentrations, i.e., assay solutions with different concentrations of the assayed MMP inhibitory compound. The experiment controls contained the same amount of Buffer A/DMSO as the assayed sample, but contained no hydroxamate (or salt thereof).
The assays from which the Ki determinations were made were performed as follows. The assayed hydroxamate samples were incubated in separate wells of untreated white polystyrene plates (Nunc Nalgene International, Rochester, N.Y.), and analyzed on a Tecan SpectraFlour Plus plate reader. The excitation wavelength was 330 nm, and the emission wavelength—420 nm. All samples (assayed hydroxamates and controls) were incubated in separate plate wells at room temperature for 1 hr in the presence of 4 μM of MMP substrate (II). In the absence of MMP inhibitory activity, substrate II was cleaved at the Gly-Leu bond resulting in an increase of relative fluorescence. Inhibition was observed as a reduced rate of this increase in relative fluorescence. The various hydroxamates were analyzed using a single low enzyme concentration with a single substrate concentration fixed at or below the Km. This protocol is a modification of method by Knight et al., FEBS Lett., 296(3), 263-266 (1992). Apparent inhibitory constants were determined by non-linear regression of reaction velocity as a function of inhibitor and enzyme concentration using Morrison's equation, as described by Kuzmic, Anal. Biochem. 286, 45-50 (2000). Modifications were made in the non-linear regression method to allow a common control reaction rate and effective enzyme concentration to be shared between all dose-response relationships on a given assay plate. […]

Human recombinant MMP-13 = target: T2, Human recombinant MMP-13 (Homo sapiens, UniProt P45452)
T2 construct: made in house; host or cells: baculovirus / insect cells
How it was run: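 Baculovirus-expressed proenzyme, APMA-activated; 4 μM fluorogenic MCA/Dpa peptide substrate (II), at or below Km, in Tris buffer pH 7.5 with CaCl2, 1 hr at room temperature. Fluorescence at 330/420 nm; Ki from non-linear regression with Morrison's equation, not corrected for substrate.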

Human recombinant MMP-14 = target: T3, Human recombinant MMP-14 (Homo sapiens, UniProt P50281)
T3 construct: The catalytic domain enzyme was expressed in E. coli inclusion bodies, solubilized in urea; made in house
How it was run: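 Refolded E. coli-expressed MMP-14 catalytic domain, APMA- or trypsin-activated, incubated 1 h at room temperature with 4 μM fluorogenic substrate II in pH 7.5 Tris/NaCl/CaCl2 buffer; fluorescence read at 330/420 nm. Ki from Morrison-equation non-linear regression, substrate at or below Km, uncorrected for substrate.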

[1] = substrate (II) 4 μM, 1 hr room temperature, apparent Ki, values in parenthesis

Compound | pKi (Human recombinant MMP-1; value in parenthesis) | pKi (Human recombinant MMP-13; value in parenthesis) | pKi (Human recombinant MMP-14; value in parenthesis) | other results
COCCN1CCC(C(=O)NO)(S(=O)(=O)c2ccc(OCCc3cccc(-c4ccccc4)c3)cc2)CC1 [Example 45] |  |  |  | pKi (Human recombinant MMP-1; [1]): < 5.00; pKi (Human recombinant MMP-13; [1]): 9.21; pKi (Human recombinant MMP-14; [1]): < 5.00
COCCN1CCC(C(=O)NO)(S(=O)(=O)c2ccc(OCCCc3cccc(-c4ccc(Cl)cc4)c3)cc2)CC1 [Example 50] |  |  |  | pKi (Human recombinant MMP-1; [1]): < 5.00; pKi (Human recombinant MMP-13; [1]): 9.22; pKi (Human recombinant MMP-14; [1]): < 5.00
COCCN1CCC(C(=O)NO)(S(=O)(=O)c2ccc(OCCCc3cccc(-c4ccc(F)c(F)c4)c3)cc2)CC1 [Example 52] |  |  |  | pKi (Human recombinant MMP-1; [1]): < 5.00; pKi (Human recombinant MMP-13; [1]): 9.09; pKi (Human recombinant MMP-14; [1]): < 5.00
O=C(NO)C1(S(=O)(=O)c2ccc(OCCCc3nc(-c4ccc(OC(F)(F)F)cc4)no3)cc2)CCN(Cc2ccccc2)CC1 [Example 93] | < 5.00 | 8.03 | < 5.00 | 
CC(C)c1ccc(-c2cccc(CCOc3ccc(S(=O)(=O)C4(C(=O)NO)CCOCC4)cc3)c2)cc1 [Example 109] | < 5.00 | 7.03 | < 5.00 | 
O=C(NO)C1(S(=O)(=O)c2ccc(OCCc3cccc(-c4cc(F)cc(F)c4)c3)cc2)CCOCC1 [Example 110] | < 5.00 | 7.94 | < 5.00 | 
O=C(NO)C1(S(=O)(=O)c2ccc(OCCc3cccc(-c4cccc(F)c4)c3)cc2)CCOCC1 [Example 111] | < 5.00 | 8.19 | < 5.00 | 
O=C(NO)C1(S(=O)(=O)c2ccc(OCCc3cccc(-c4ccc(OC(F)(F)F)cc4)c3)cc2)CCOCC1 [Example 112] | < 5.00 | 7.29 | < 5.00 | 
O=C(NO)C1(S(=O)(=O)c2ccc(OCCc3cccc(-c4ccccc4Cl)c3)cc2)CCOCC1 [Example 114] | < 5.00 | 8.38 | < 5.00 | 
Cc1ccccc1-c1cccc(CCOc2ccc(S(=O)(=O)C3(C(=O)NO)CCOCC3)cc2)c1 [Example 116] | < 5.00 | 8.29 | < 5.00 | 
Cc1ccc(-c2cccc(CCOc3ccc(S(=O)(=O)C4(C(=O)NO)CCOCC4)cc3)c2)cc1C [Example 117] | < 5.00 | 7.68 | < 5.00 | 
Cc1cc(-c2cccc(CCOc3ccc(S(=O)(=O)C4(C(=O)NO)CCOCC4)cc3)c2)ccc1Cl [Example 118] | < 5.00 | 7.73 | < 5.00 | 
COc1ccc(-c2cccc(CCOc3ccc(S(=O)(=O)C4(C(=O)NO)CCOCC4)cc3)c2)cc1C [Example 119] | < 5.00 | 7.50 | < 5.00 | 
O=C(NO)C1(S(=O)(=O)c2ccc(OCCc3cccc(-c4ccc(Cl)c(Cl)c4)c3)cc2)CCOCC1 [Example 121] | < 5.00 | 7.57 | < 5.00 | 
O=C(NO)C1(S(=O)(=O)c2ccc(OCCc3cccc(-c4ccc(Cl)cc4Cl)c3)cc2)CCOCC1 [Example 124] | < 5.00 | 7.70 | < 5.00 | 
O=C(NO)C1(S(=O)(=O)c2ccc(OCCc3cccc(-c4cc(Cl)cc(Cl)c4)c3)cc2)CCOCC1 [Example 126] | < 5.00 | 7.09 | < 5.00 | 
COCCN1CCC(C(=O)NO)(S(=O)(=O)c2ccc(OCCCc3nc(-c4ccc(CC(C)C)cc4C)no3)cc2)CC1 [Example 128] | < 5.00 | 7.86 | < 5.00 | 

Compound | pKi (Human recombinant MMP-1; value in parenthesis) | pKi (Human recombinant MMP-13; value in parenthesis) | pKi (Human recombinant MMP-14; value in parenthesis) | other results
NC(=O)c1cccc(-c2noc(CCCOc3ccc(S(=O)(=O)C4(C(=O)NO)CCN(C5CC5)CC4)cc3)n2)c1 [Example 129] | < 5.00 | 9.57 | < 5.00 | 
COCCN1CCC(C(=O)NO)(S(=O)(=O)c2ccc(OCCCc3nc(-c4ccc(Br)cc4C)no3)cc2)CC1 [Example 135] | < 5.00 | 9.12 | 5.02 | 
O=C(NO)C1(S(=O)(=O)c2ccc(OCCCc3nc(C4CCCCC4)no3)cc2)CCN(C2CC2)CC1 [Example 137] | < 5.00 | 9.01 | < 5.00 | 
Cc1cc(-c2cccc(CCCOc3ccc(S(=O)(=O)C4(C(=O)NO)CCOCC4)cc3)c2)ccc1Cl [Example 166] | < 5.00 | 7.20 | < 5.00 | 
Cc1cc(-c2cccc(CCCOc3ccc(S(=O)(=O)C4(C(=O)NO)CCOCC4)cc3)c2)ccc1F [Example 168] | < 5.00 | 7.56 | < 5.00 | 
O=C(NO)C1(S(=O)(=O)c2ccc(OCCCc3cccc(-c4ccc(Cl)c(Cl)c4)c3)cc2)CCOCC1 [Example 169] | < 5.00 | 7.69 | < 5.00 | 
O=C(NO)C1(S(=O)(=O)c2ccc(OCCCc3cccc(-c4ccc(F)c(F)c4)c3)cc2)CCOCC1 [Example 170] | < 5.00 | 8.17 | < 5.00 | 
O=C(NO)C1(S(=O)(=O)c2ccc(OCCCc3cccc(-c4ccc(Cl)cc4Cl)c3)cc2)CCOCC1 [Example 171] | < 5.00 | 7.90 | < 5.00 | 
O=C(NO)C1(S(=O)(=O)c2ccc(OCCCc3cccc(-c4cc(Cl)cc(Cl)c4)c3)cc2)CCOCC1 [Example 172] | < 5.00 | 7.15 | < 5.00 | 
CCCCc1ccc(-c2noc(CCCOc3ccc(S(=O)(=O)C4(C(=O)NO)CCOCC4)cc3)n2)c(C)c1 [Example 183] | < 5.00 | 7.82 | < 5.00 | 
COCCN1CCC(C(=O)NO)(S(=O)(=O)c2ccc(OCCCc3nc(-c4ccc(C5(c6ccccc6)CC5)cc4)no3)cc2)CC1 [Example 185] | < 5.00 | 8.43 | < 5.00 | 
COCCN1CCC(C(=O)NO)(S(=O)(=O)c2ccc(OCCCc3nc(-c4cccc5ccccc45)no3)cc2)CC1 [Example 199] | < 5.00 | 8.51 | < 5.00 | 
O=C(NO)C1(S(=O)(=O)c2ccc(OCCCc3ccc(F)c(-c4ccccc4)c3)cc2)CCOCC1 [Example 504] |  |  |  | pKi (Human recombinant MMP-1; value in parentheses): < 5.00; pKi (Human recombinant MMP-13; value in parentheses): 8.33; pKi (Human recombinant MMP-14; value in parentheses): < 5.00
CCCC(=O)CCCOc1ccc(S(=O)(=O)C2(C(=O)NO)CCOCC2)cc1 [Example 505] |  |  |  | pKi (Human recombinant MMP-1; value in parentheses): 6.07; pKi (Human recombinant MMP-13; value in parentheses): 9.09; pKi (Human recombinant MMP-14; value in parentheses): 6.02
CCCCC(=O)CCCOc1ccc(S(=O)(=O)C2(C(=O)NO)CCOCC2)cc1 [Example 506] |  |  |  | pKi (Human recombinant MMP-1; value in parentheses): 5.83; pKi (Human recombinant MMP-13; value in parentheses): 9.64; pKi (Human recombinant MMP-14; value in parentheses): 6.17
CCCCCCCOc1ccc(S(=O)(=O)C2(C(=O)NO)CCOCC2)cc1 [Example 507] |  |  |  | pKi (Human recombinant MMP-1; value in parentheses): 5.44; pKi (Human recombinant MMP-13; value in parentheses): 9.72; pKi (Human recombinant MMP-14; value in parentheses): 6.35
